Where no end group is shown, it is not given here. The star is where a group is joined. Biotin = O=C1N[C@H]2[C@H](CS[C@H]2CCCCC(=O)*)N1
Each substance was assayed on pellicle coated bovine enamel (assay: Phage ELISA on pellicle coated bovine enamel (Example 6)). Details: 10^11 pfu phage, 30 min in vivo pellicle on bovine enamel, normalized to an internal control.
Assay type: binding, human
Description: A total of 29 selected phage candidates from Table 5 were used in phage ELISA Experiment to determine binding affinity and coverage of each phage on pellicle substrates. Purified phage lysates were used for binding to pellicle coated bovine enamel using an anti-M13 phage antibody conjugated to horseradish-peroxidase, followed by the addition of chromogenic agent TMB. The plates were read at A450 nm.
The wells were filled with 1 mL of 10^11 pfu purified phage stock which was prepared by diluting in blocking buffer. […] The non-binding phage was removed by washing 5 times with PBST. […] The conjugate solution was removed and was washed 3 times with PBST.
In the case of “TTYHYKNIYQESYQQRNPAV (Synthetic oral-surface binding peptide) [DenP3]”, the “O.D.450 (normalized)” value is reported as 2.495.

Each substance was assayed on pellicle coated bovine enamel (assay: Phage ELISA of brushed 8 hr pellicle candidates, screened with 30 min in vivo pellicle (Example 8)). Details: 10^11 pfu phage, 30 min in vivo pellicle on bovine enamel, normalized to DenP3.
Assay type: binding, human
Description: A total of 18 selected phage candidates were used in a phage ELISA Experiment. Purified phage lysates were used for binding to pellicle coated bovine enamel using an anti-M13 phage antibody conjugated to horseradish-peroxidase, followed by the addition of chromogenic agent TMB. The plates were read at A450 nm.
The wells were rinsed 2 times with wash buffer consisting of PBST. The wells were filled with 1 mL of 10^11 pfu purified phage stock which was prepared by diluting in blocking buffer. […] The non-binding phage was removed by washing 5 times with PBST. Then, 500 μL of horseradish peroxidase/anti-M13 antibody conjugate (Amersham USA, Piscataway, N.J.), diluted 1:500 in the blocking buffer, was added and incubated for 45 min at room temperature. The conjugate solution was removed and was washed 5 times with PBST.
“GYQPHYVDHTIGWQPMIRPN (Synthetic oral-surface binding peptide) [DenP104]” was tested, and the “O.D.450 (normalized)” value was 0.790. In the case of “SMWHDITKRYRNPSEMVSAY (Synthetic oral-surface binding peptide) [DenP107]”, the “O.D.450 (normalized)” value is reported as 0.726. For “GGMGALESYRQWNHLA (Synthetic oral-surface binding peptide) [DenP113]”, the “O.D.450 (normalized)” value was 1.348. For “WHEPHQFSGENTDYSSSMGT (Synthetic oral-surface binding peptide) [DenP109]”, the “O.D.450 (normalized)” value was 0.716. “GINKGQRPPWESWHEN (Synthetic oral-surface binding peptide) [DenP114]” was tested, and the “O.D.450 (normalized)” value was 0.703. “QFNQTSHSFMHGTSGYVPGK (Synthetic oral-surface binding peptide) [DenP105]” was tested, and the “O.D.450 (normalized)” value was 0.470. In the case of “GVHQYSRPTVPSYLWTSGQH (Synthetic oral-surface binding peptide) [DenP103]”, the “O.D.450 (normalized)” value is reported as 0.879. In the case of “DGYKLQTSLDWQMWNP (Synthetic oral-surface binding peptide) [DenP111]”, the “O.D.450 (normalized)” value is reported as 1.051. “GYGQYVSQQTWAHSNK (Synthetic oral-surface binding peptide) [DenP115]” was tested, and the “O.D.450 (normalized)” value was 0.501. “EFYPFAEVPPEKSGIGRQVF (Synthetic oral-surface binding peptide) [DenP102]” was tested, and the “O.D.450 (normalized)” value was 0.520. With “FPSKWYNHHRHITGHV (Synthetic oral-surface binding peptide) [DenP112]” the “O.D.450 (normalized)” value was 0.413. With “TTYHYKNIYQESYQQRNPAV (Synthetic oral-surface binding peptide) [DenP3]” the “O.D.450 (normalized)” value was 1.000. In the case of “HDHLSWWGQFDRQNLL (Synthetic oral-surface binding peptide) [DenP116]”, the “O.D.450 (normalized)” value is reported as 1.055. For “THGNKHQSWTYPSEINHKNY (Synthetic oral-surface binding peptide) [DenP108]”, the “O.D.450 (normalized)” value was 1.149. “AIEYQHSATTPWTMRTRLPP (Synthetic oral-surface binding peptide) [DenP101]” was tested, and the “O.D.450 (normalized)” value was 0.467. For “MPGHQESIKVQNWNRV (Synthetic oral-surface binding peptide) [DenP117]”, the “O.D.450 (normalized)” value was 0.433. With “NQQMKLVPQHWHRAQP (Synthetic oral-surface binding peptide) [DenP119]” the “O.D.450 (normalized)” value was 1.051. In the case of “NLHSPWPSHAAHHWST (Synthetic oral-surface binding peptide) [DenP118]”, the “O.D.450 (normalized)” value is reported as 0.641. “SFSWHRGDWELGHQSKTMGM (Synthetic oral-surface binding peptide) [DenP106]” was tested, and the “O.D.450 (normalized)” value was 1.524.

Each substance was assayed on pellicle coated enamel substrates (assay: not given). Details: 20 μM biotinylated peptide, streptavidin-HRP, normalized to DenP03, three replicates.
Description: A total of 20 synthetic peptides were manufactured using sequences obtained from Table 6. Peptides were obtained from SynBioSci Corp. (Livermore, Calif.) and included an additional sequence (SSRP; SEQ ID NO: 118) at the N-terminus and biotin labeled lysine at the C-terminus.
Enamel substrates were cut into approximately 7 mm squares and mounted on wax mounting for incubation in the mouth for 30 min to form a pellicle coated surface. The pellicle coated enamel substrates were removed from the wax backing and placed in well plates with the pellicle surface exposed as in Example 5. Each pellicle coated substrate was incubated for 1 h at room temperature (˜22° C.) with 1 mL of blocking buffer, consisting of 1 mg/mL BSA in PBST (Pierce BUPH™ #28372 with 0.1% TWEEN® 20). The blocking buffer was removed by aspirating the liquid out of each well. The tube was rinsed 2 times with wash buffer consisting of PBST. The wells were filled with 500 μL of 20 μM peptide solution which was prepared by diluting in blocking buffer. The samples were incubated for 30 min with slow shaking at 37° C. The non-binding peptide was removed by washing 6 times with PBST. Then, 500 μL of horseradish peroxidase/streptavidin conjugate (Pierce #22127), diluted 1:2000 in PBST, was added and incubated for 1 h at room temperature (˜22° C.). The conjugate solution was removed and was washed 4 times with PBST.
Each enamel substrate was removed from the well and washed again in a 15-mL test tube with 10 mL of PBST. Each enamel substrate was then mounted in a clean well plate with only the enamel surface exposed. A 1:1 solution of TMB substrate and H2O2 (200 μL) was added to each well and the color was allowed to develop for between 10 to 20 min, typically for 15 min, at room temperature (˜22° C.). Then, 100 μL of solution from each well was transferred to a 96 well reading plate containing stop solution (100 μL of 2 M H2SO4) in each well. The A450 was measured using a microplate spectrophotometer (Molecular Devices, Sunnyvale, Calif.). […] Each sequence was tested with three replicate enamel coated pellicle substrates.
“SSRPVEPATKNMREARSSTQMRRIK(Biotin) [DenP4-A]” was tested, and the “O.D.450 (normalized)” value was 0.803. For “SSRPVNPNWVETQALHQPPGNTK(Biotin) [DenP20-A]”, the “O.D.450 (normalized)” value was 0.590. “SSRPQVPDYLSPTHQKKAFLEIPTK(Biotin) [DenP29-A]” was tested, and the “O.D.450 (normalized)” value was 0.468. For “SSRPAPPTYQTASYPHNLPSKRKMK(Biotin) [DenP28-A]”, the “O.D.450 (normalized)” value was 0.811. In the case of SSRPFDGIGLGTATRHQNRK(Biotin) [DenP12-A], the “O.D.450 (normalized)” value is reported as 0.475. In the case of SSRPQAAQVHMMQHSRPTTK(Biotin) [DenP13-A], the “O.D.450 (normalized)” value is reported as 0.699. In the case of “SSRPTTGSSSQADTSASMSIVPAHK(Biotin) [DenP17-A]”, the “O.D.450 (normalized)” value is reported as 0.143. For “SSRPYLLPKDQTTAPQVTPIVQHKK(Biotin) [DenP5-A]”, the “O.D.450 (normalized)” value was 0.462. With “SSRPHDPNHLTHQARTIYRNANHTK(Biotin) [DenP23-A]” the “O.D.450 (normalized)” value was 0.850.
